In US12312628B2, “Metabolic control over organometallic catalysts using electroactive bacteria” (THE BOARD OF REGENTS OF THE UNIVERSITY OF TEXAS SYSTEM, priority 2018, dated 2025):

How the values were obtained:
S. oneidensis MR-1 = assay: Bacterial viability after polymerization (LIVE/DEAD BacLight, CFU counting); assay type: cell-based, Shewanella oneidensis
Description: Bacterial viability was determined by CFU counting and staining with the LIVE/DEAD BacLight Viability Kit (Invitrogen). For CFU counting, serial dilutions from the Cu-TPMA polymerization reaction and a control culture containing 20 mM sodium lactate and 40 mM sodium fumarate were plated onto LB agar containing 20 mM sodium lactate and 40 mM sodium fumarate, and incubated anaerobically for 18 hours. The LIVE/DEAD BacLight Viability Kit was used according to manufacturer instructions. Briefly, cells were harvested after polymerization and washed 3× with 0.85% saline by centrifugation at 6000×g for 20 min. Cells were concentrated to an OD600 of ˜2.0 and incubated with the LIVE/DEAD BacLight Bacterial Viability dye mixture in the dark for 15 minutes. Excess, unbound dye was removed by repeated centrifugation and washing with 0.85% saline (total of 5 washes). 20 μL of cells were placed on glass slides, allowed to settle, and covered with a 0.17 mm coverslip. Excess moisture was wicked from the slide edges and the coverslips were sealed with nail polish. A Zeiss Axiovert 200M Fluorescent Microscope was used to image live and dead cells at room temperature. Images were captured using 475/40 nm excitation and 530/50 nm emission for green (live) fluorescence and 560/40 nm excitation and 630/75 nm emission for red (dead) fluorescence with a 40× oil objective. Cell counts to determine the viable population percentages were quantified by thresholding using Fiji 1.0 software from at least 3 different fields of view. Representative images were background subtracted using a rolling ball radius of 10 pixels in Fiji 1.0.

E. coli = details: polymerization conditions, Cu(II/I) 2 μM
[1] = test system: S. oneidensis genomic knockout strain (ΔmtrCΔomcAΔmtrF) with BUFFER GATE/sfGFP plasmid; assay: BUFFER GATE/sfGFP reporter response to inducer; assay type: cell-based, Shewanella oneidensis; details: various concentrations of IPTG
Description: An S. oneidensis strain/plasmid system was developed that tunes extracellular electron transfer via BUFFER GATE-controlled expression of mtrC. The BUFFER GATE sets gene expression as ‘off’ in the absence of a user-defined signal (e.g., small-molecule, light, heat). However, in the signal's presence, the BUFFER GATE turns gene expression ‘on’. A BUFFER GATE was constructed by encoding the LacI repressor and Ptac promoter pairing on a plasmid, which together can modulate transcription of promoter-downstream genes based on culture concentration of the small-molecule Isopropyl β-D-1-thiogalactopyranoside or IPTG. To test the functionality and dynamic range of gene expression actuated by this BUFFER GATE, a plasmid was constructed that placed a ribozyme-insulated fluorescent reporter gene, superfolder GFP or sfGFP, downstream of the Ptac promoter. This BUFFER GATE/sfGFP plasmid was used to transform an S. oneidensis genomic knockout strain (ΔmtrCΔomcAΔmtrF) and sfGFP fluorescence was measured at various concentrations of IPTG. Using this S. oneidensis strain, 488/530 nm fluorescence varied over about 2 orders of magnitude (FIG. 11).

`[Cu+]` [Cu(I)] was tested, and the “inhibition of MR-1 growth” value (S. oneidensis MR-1; after 24 hours of polymerization, CuSO4·5H2O and EDTA) was “minimal inhibition”.

In the case of `O.O.O.O.O.O=S(=O)([O-])[O-].[Cu+2]` [Cu(II), Cupric sulfate pentahydrate], the post-polymerization viability (S. oneidensis MR-1; MR-1, polymerization conditions, Cu(II/I) 2 μM) is reported as 74%, the “MR-1 colony forming units (CFUs) following polymerization” value (S. oneidensis MR-1; optimized polymerization conditions, Cu(II/I) 2 μM and below) is reported as “No significant difference” and the post-polymerization viability (E. coli) is reported as 86%.

In the case of `CC(C)S[C@@H]1O[C@H](CO)[C@H](O)[C@H](O)[C@H]1O` [IPTG, Isopropyl β-D-1-thiogalactopyranoside], the “sfGFP 488/530 nm fluorescence variation” value [1] is reported as “about 2 orders of magnitude”.
